Assay results reported in the supplement of paper PMC10307832.

Legend:
Assay in all cases: relative viability (nuclei count vs DMSO), 5 days (fraction); higher = more cells survive
[1] = compound: CC[C@H](C)N1C=C(C2=C(C=C(C=C21)C3=CN=C(C=C3)N4CCNCC4)C(=O)NCC5=C(C=C(NC5=O)C)C)C [GSK126] + Cc1cc(Nc2cc(N3CCN(C)CC3)nc(Sc3ccc(NC(=O)C4CC4)cc3)n2)n[nH]1 [Tozasertib] (partner 0.1 µM)
Summary of the method: (§1)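 Five library-drug doses in √10 steps were combined with a fixed anchor-drug dose, or a single drug was given alone, by pin tool to lung cancer cell lines in 1536-well plates the day after seeding. Nuclei were stained and counted after 5 days. Relative viability is the nuclei count in treated wells over that in vehicle wells, taken as the median of duplicate plates.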

[2] = compound: CC[C@H](C)N1C=C(C2=C(C=C(C=C21)C3=CN=C(C=C3)N4CCNCC4)C(=O)NCC5=C(C=C(NC5=O)C)C)C [GSK126] + NC(=O)Nc1cc(-c2cccc(F)c2)sc1C(=O)N[C@H]1CCCNC1 [AZD7762] (partner 0.2 µM)
Summary of the method: as §1

[3] = compound: CC[C@H](C)N1C=C(C2=C(C=C(C=C21)C3=CN=C(C=C3)N4CCNCC4)C(=O)NCC5=C(C=C(NC5=O)C)C)C [GSK126] + N=C(N)NC(=N)NCCc1ccccc1 [Phenformin] (partner 250 µM)
Summary of the method: as §1

[4] = compound: C1CC(C1)(C(=O)O)C(=O)O.[NH2-].[NH2-].[Pt+2] [Carboplatin] + CCNC(=O)c1noc(-c2cc(C(C)C)c(O)cc2O)c1-c1ccc(CN2CCOCC2)cc1 [Luminespib] (partner 0.01 µM)
Summary of the method: as §1

| Cell Line | relative viability ([1]; first compound 0.08 µM) | relative viability ([1]; first compound 0.253 µM) | relative viability ([1]; first compound 0.8 µM) | relative viability ([1]; first compound 2.53 µM) | relative viability ([1]; first compound 8 µM) | relative viability ([2]; first compound 0.08 µM) | relative viability ([2]; first compound 0.253 µM) | relative viability ([2]; first compound 0.8 µM) | relative viability ([2]; first compound 2.53 µM) | relative viability ([2]; first compound 8 µM) | relative viability ([3]; first compound 0.08 µM) | relative viability ([3]; first compound 0.253 µM) | relative viability ([3]; first compound 0.8 µM) | relative viability ([3]; first compound 2.53 µM) | relative viability ([3]; first compound 8 µM) | relative viability ([4]; first compound 0.08 µM) | relative viability ([4]; first compound 0.253 µM) | relative viability ([4]; first compound 0.8 µM) | relative viability ([4]; first compound 2.53 µM) | relative viability ([4]; first compound 8 µM) |
| --- | --- | --- | --- | --- | --- | --- | --- | --- | --- | --- | --- | --- | --- | --- | --- | --- | --- | --- | --- | --- |
| HCC-366 | 0.193 | 0.117 | 0.123 | 0.0783 | 0.0929 | 0.33 | 0.251 | 0.201 | 0.293 | 0.177 | 0.687 | 0.641 | 0.574 | 0.644 | 0.543 | – | – | – | – | – |
| HCC-827 | 0.428 | 0.433 | 0.453 | 0.387 | 0.408 | 0.214 | 0.191 | 0.24 | 0.232 | 0.196 | 0.408 | 0.385 | 0.441 | 0.388 | 0.411 | 0.653 | 0.675 | 0.441 | 0.452 | 0.3 |
| HOP-62 | 0.314 | 0.397 | 0.427 | 0.261 | 0.308 | 0.67 | 0.757 | 0.819 | 0.528 | 0.363 | 0.672 | 0.68 | 0.672 | 0.642 | 0.68 | 0.957 | 0.876 | 0.819 | 0.799 | 0.719 |
| LC-2-ad | 0.43 | 0.472 | 0.428 | 0.458 | 0.419 | 0.851 | 0.866 | 0.858 | 0.953 | 0.92 | 0.627 | 0.634 | 0.583 | 0.56 | 0.642 | 1.02 | 1.01 | 0.993 | 0.911 | 0.651 |
| LCLC-97TM1 | 0.244 | 0.223 | 0.188 | 0.225 | 0.176 | 0.307 | 0.312 | 0.228 | 0.267 | 0.24 | 0.359 | 0.459 | 0.455 | 0.389 | 0.374 | 0.726 | 0.667 | 0.65 | 0.732 | 0.722 |
| LCLC-103H | 0.699 | 0.473 | 0.435 | 0.512 | 0.446 | 0.847 | 0.86 | 0.786 | 0.778 | 0.843 | 0.331 | 0.383 | 0.377 | 0.344 | 0.39 | 0.918 | 1.09 | 0.859 | 0.908 | 0.905 |
| LK-2 | 0.209 | 0.212 | 0.175 | 0.183 | 0.189 | 0.402 | 0.364 | 0.401 | 0.623 | 0.293 | 0.658 | 0.522 | 0.454 | 0.334 | 0.352 | 0.177 | 0.198 | 0.179 | 0.16 | 0.178 |
| NCI-H520 | 0.594 | 0.426 | 0.48 | 0.443 | 0.352 | – | – | – | – | – | 0.572 | 0.542 | 0.561 | 0.574 | 0.497 | 0.256 | 0.209 | 0.183 | 0.21 | 0.211 |
| NCI-H661 | 0.355 | 0.336 | 0.344 | 0.343 | 0.332 | – | – | – | – | – | 0.277 | 0.264 | 0.691 | 0.269 | 0.244 | 0.892 | 0.901 | 0.854 | 0.874 | 0.744 |
| NCI-H1563 | – | – | – | – | – | – | – | – | – | – | 0.665 | 0.676 | 0.654 | 0.596 | 0.646 | 0.526 | 0.506 | 0.499 | 0.482 | 0.565 |
| NCI-H1623 | 0.453 | 0.487 | 0.419 | 0.416 | 0.353 | – | – | – | – | – | 0.631 | 0.594 | 0.602 | 0.589 | 0.537 | 0.548 | 0.469 | 0.457 | 0.507 | 0.433 |
| NCI-H1648 | 0.386 | – | 0.478 | 0.518 | 0.321 | 0.568 | 0.756 | 0.73 | 0.718 | 0.522 | – | – | – | – | – | – | – | – | – | – |
| NCI-H1650 | 0.42 | 0.455 | 0.394 | 0.356 | 0.3 | – | – | – | – | – | 0.531 | 0.404 | 0.44 | 0.361 | 0.358 | 0.212 | 0.217 | 0.189 | 0.215 | 0.196 |
| NCI-H1703 | – | – | – | – | – | 0.115 | 0.115 | 0.133 | 0.118 | 0.137 | – | – | – | – | – | – | – | – | – | – |
| NCI-H1792 | – | – | – | – | – | 0.68 | 0.712 | 0.537 | 0.58 | 0.567 | 0.344 | – | 0.262 | 0.255 | 0.228 | 0.492 | 0.36 | 0.44 | 0.415 | 0.267 |
| NCI-H2009 | 0.798 | 0.705 | 0.639 | 0.615 | 0.464 | – | – | – | – | – | 0.506 | 0.467 | 0.442 | 0.43 | 0.359 | 1.06 | 1.05 | 0.986 | 0.935 | 0.581 |
| NCI-H2023 | 0.387 | 0.342 | 0.339 | 0.266 | 0.184 | – | – | – | – | – | 0.445 | 0.383 | 0.373 | 0.377 | 0.278 | 0.774 | 0.715 | 0.668 | 0.281 | 0.172 |
| NCI-H2228 | 0.254 | 0.225 | 0.273 | 0.172 | 0.15 | – | – | – | – | – | 0.43 | 0.295 | 0.376 | 0.337 | 0.365 | 0.179 | 0.136 | 0.115 | 0.158 | 0.132 |
| SK-LU-1 | 0.293 | 0.357 | 0.366 | 0.321 | 0.331 | – | – | – | – | – | 0.674 | 0.521 | 0.553 | 0.582 | 0.603 | 0.22 | 0.21 | 0.192 | 0.21 | 0.198 |
| SK-MES-1 | 0.852 | 0.988 | 0.937 | 0.813 | 0.81 | – | – | – | – | – | 0.743 | 0.673 | 0.635 | 0.526 | 0.535 | 0.891 | 0.763 | 0.714 | 0.777 | 0.81 |
| SW 1573 | 0.222 | 0.211 | 0.159 | 0.176 | 0.198 | – | – | – | – | – | 0.41 | 0.4 | 0.376 | 0.439 | 0.423 | 0.298 | 0.293 | 0.344 | 0.579 | 0.222 |
